Measurements taken from patent publication US7557132B2, “Compounds useful as pesticides” (Dow AgroSciences LLC, priority 2002, dated 2009).

CC(/C(=C/[N+](=O)[O-])Nc1ccccc1)c1ccc(Cl)nc1 (stereo not shown) [Compound 45, N-{(Z)-1-[1-(6-chloro-3-pyridinyl)ethyl]-2-nitroethenyl}aniline]
melting point: 93 to 95 °C
